Test results published in patent US11369127B2, “Sweetener and flavor compositions, methods of making and methods of use thereof” (EPC Natural Products Co., Ltd., priority 2018, dated 2022).
“Also recorded” adds a separate entry of the source.

Experiments:
[1] = DPPH radical-scavenging activity (Ex. 65); format: biochemical; conditions: iron-III reduction and DPPH radical scavenging (FIG. 49, 50); 100° C., 0-5 hours
Experimental: 1 mg 1,1-Diphenyl-2-picrylhydrazyl radical (DPPH)/ml ethanol, dilution to assay concentration were prepared in ethanol (40 μg/mL); Calibration samples were prepared with Ascorbic acid in a concentration of 0-10 μg/mL; as a negative control sample, water was used.
Samples in aqueous solution were used as such or diluted with water.
A 0.1 ml sample (or calibration standard) was mixed with 3.9 ml solution of DPPH (100 μMolar) and reacted while protected from light at room temperature for 30 min. Absorbance was determined at 517 nm against ethanol.
10 mM of amino acid and/or 10 mM sugar were dissolved in 10 ml 0.1 mM KH2PO4-buffer, pH=7.8.
The samples were kept at 100° C. in sealed glass vials (Pyrex 15 ml with screw caps) for 0 (before reaction), 2.5 or 5.0 hours. Thereafter the samples were transferred to an ice water bath and cooled down to room temperature. These samples were diluted 1:10 and used for the test assay for anti-oxidant potential.

[2] = Kinetics of reaction in dependence of pH-conditions (degradation of Phe and Reb-A, Gluc, Xyl, Suc by HPLC/MS)
Experimental: Quantitative evaluation was performed using external standardization.
Kinetics of Reaction in Dependence of pH-Conditions

[3] = Sensory evaluation of GSGs and SGs, Thaumatin, NHDC and combinations (Ex. 255); set-up: species or system human; conditions: in water; 4.5 ppm Thaumatin and/or 50 ppm GSGs and SGs, NHDC 1-5 ppm
Experimental: 4.5 ppm Thaumatin (equivalent to 10 ppm EPCalin) was dissolved in water. Increasing amounts of NHDC (1-5 ppm) were added to the solution and the sensory properties were evaluated.
50 ppm (GSGs and SGs) were dissolved in water. Increasing amounts of NHDC (1-5 ppm) were added to the solution and the sensory properties were evaluated.
50 ppm (GSGs and SGs) and 4.5 ppm Thaumatin (equivalent to 10 ppm EPCalin) were dissolved in water. Increasing amounts of NHDC (1-5 ppm) were added to the solution and the sensory properties were evaluated.
Sweetness intensity was rated on 5-point scale

[4] = Stevia-derived MRPs with NHDC and Thaumatin, also in Redbull sugarfree (Ex. 261); set-up: species or system human; conditions: 150 μl sample in 100 ml Redbull sugar free
Experimental: 150 μl of the each sample was added to 100 ml Redbull sugar free and mixed. The taste profiles of the samples were compared. As a control, a RedBull sugar free sample without the addition of Steviaroma was used.
Before tasting the tasters discussed the upcoming series of samples and tasted samples with predetermined attributes with varying intensities to find a commonality in description. Four trained tasters blind taste tested independently all samples of a series. They were allowed to re-taste and made notes for the sensory attributes perceived including the relative intensity.
In the last step the attributes noted were discussed openly to find an acceptable description. In case that more than 1 taster disagreed with the description, the tasting was repeated.

C=C1C[C@@]23CC[C@H]4[C@@](C)(CCC[C@@]4(C)C(=O)O[C@@H]4O[C@H](CO)[C@@H](O)[C@H](O)[C@H]4O)[C@@H]2CC[C@]1(O[C@@H]1O[C@H](CO)[C@@H](O)[C@H](O[C@@H]2O[C@H](CO)[C@@H](O)[C@H](O)[C@H]2O)[C@H]1O[C@@H]1O[C@H](CO)[C@@H](O)[C@H](O)[C@H]1O)C3 [Reb-A, Rebaudioside A]
anti-oxidant properties [1]: substantial anti-oxidant properties

O=C(O)[C@H](Cc1ccccc1)NCC(=O)[C@@H](O)[C@H](O)[C@H](O)CO [MRI (Phe-Glu)]
% formation from degraded Phe ([2]; pH = 5.5): <0.10%
% formation from degraded Phe ([2]; pH = 7.0): 0.54%
% formation from degraded Phe ([2]; pH = 8.5): 0.84%

COc1ccc(CCC(=O)c2c(O)cc(O[C@@H]3O[C@H](CO)[C@@H](O)[C@H](O)[C@H]3O[C@@H]3O[C@@H](C)[C@H](O)[C@@H](O)[C@H]3O)cc2O)cc1O [NHDC, Neohesperidin dihydrochalcone]
sensory properties of combinations with NHDC [3]: long lasting lingering; also recorded: boosts the lingering
taste profile in sugarfree beverage [4]: improved the mouth-feel and harmony of taste impression yielding a substantially improved taste profile
